What was measured:
Type in all cases: cell-based
[1] = test system: Neuro-2a cells; assay: Neurite outgrowth in mouse neuroblastoma Neuro-2a cells (phase-contrast microscopy); details: 10 μg/mL, 48 hours culture, vs control without compound
Experimental: Using mouse-derived neuroblastoma cells that are model cells used to examine neurite outgrowth effect, the inductive action of the NAD analogue of the present invention on the outgrowth of neurites was examined. Mouse-derived neuroblastoma cells (Neuro-2a cells) (obtained from the Health Science Research Resources Bank) were adjusted to a concentration of 10^6 cells/mL, and the cells were then cultured at 37° C. in a 10% fetal bovine serum-added Eagle's minimal essential (EME) medium culture solution in the presence of 5% CO2.
The above-described Neuro-2a cells were cultured for 3 hours, and the medium was then exchanged with a fresh one of the same type as described above. Then, 10 μg/mL of the NAD analogue of the present invention was added thereto, and the culture was further continued for 48 hours. Thereafter, the morphological alteration of the cell was observed under a phase-contrast microscope. […] However, when compared with the case of adding the NAD analogue of the present invention to the cells, the length of such a neurite was apparently short. Moreover, the same experiment as described above was carried out using commercially available β-NAD.

[2] = test system: fetal rat midbrain dopaminergic nerve cells; assay: Neurite outgrowth in fetal rat midbrain dopaminergic nerve cells (anti-tyrosine hydroxylase immunostaining, Neurolucida); details: for length of neurites elongated from the cell bodies (concentration dependence): 0.01, 0.1, 1.0 and 10 μg/mL, vs control (FIG. 6)
Experimental: Fetuses were removed from a Sprague-Dawley (SD) rat that was 15 days pregnant, and a ventral portion of midbrain was then cut out under a stereoscopic microscope. The obtained portion was chopped with a surgical knife, and was then treated at 37° C. in a 0.25% trypsin-containing PBS for 20 minutes, so that the cells were dispersed. Thereafter, the resulting cells were treated with PBS that contained 50 μg/mL deoxyribonuclease (DNase I) and 50 μg/mL trypsin inhibitor at 37° C. for 5 minutes, so as to obtain fetal rat midbrain dopaminergic nerve cells. The thus obtained fetal rat midbrain dopaminergic nerve cells were cultured at 37° C. in a 10% bovine serum-added Dulbecco's modified Eagle's medium (DMEM) culture solution in the presence of 5% CO2.
The above-described fetal rat midbrain dopaminergic nerve cells were cultured for 2 days, and the culture solution was then exchanged with a fresh one. The NAD analogue of the present invention was added to the cells in various concentrations of 0 (control), 0.01, 0.1, 1.0 and 10 μg/mL, and the obtained mixture was further cultured for 3 days. On the 5th day of the culture, the dopaminergic nerve cells were stained with an anti-tyrosine hydroxylase antibody (manufactured by Pel-Freez) and a Fluorescein (FITC)-labeled secondary antibody (manufactured by Jackson ImmunoResearch Laboratories, Inc.) according to an immunostaining method. Then, the length and number of neurites elongated from the cell bodies of the stained cells were then measured using Neurolucida (manufactured by Micro Bright Field). […] Moreover, the same experiment as described above was carried out using commercially available β-NAD.
The lengths of neurites elongated from the cells were measured, and a comparison was made on the measurement results. When 10 μg/mL of the NAD analogue of the present invention was added to the cells, the length of the obtained neurite became approximately 150% if the length of a neurite in the control was defined as 100%. […] It is noted that 45 control cells and 38 test cells were subjected to the measurement, and the results were shown as average values.
FIG. 8 is a graph showing a quantitative change in the effect of the NAD analogue of the present invention to allow neurites to elongate from fetal rat brain dopaminergic cells. […] Moreover, the same experiment as described above was carried out using commercially available β-NAD.

[3] = test system: NB-1 cells; assay: Neurite outgrowth in human neuroblastoma-derived NB-1 cells (phase-contrast microscopy); details: 10 μg/mL; for morphological alteration of the cells (neurite outgrowth): NB-1 cells 10^3 cells/mL, observed on the 10th day (FIG. 15)
Experimental: Using human neuroblastoma cell-derived cells as model cells for neurite outgrowth, the action of the NAD analogue of the present invention to induce the outgrowth of neurites was examined. Human-derived neuroblastoma cells (NB-1 cells) (obtained from the Health Science Research Resources Bank) were adjusted to a concentration of 10^3 cells/mL, and the cells were then cultured at 37° C. in a 10% fetal bovine serum-added Eagle's minimal essential medium (EME) culture solution in the presence of 5% CO2.
The above-described NB-1 cells were cultured for 3 hours, and the medium was then exchanged with a fresh one of the same type as described above. Then, 10 μg/mL of the NAD analogue of the present invention was added thereto, and the culture was further continued. Thereafter, the morphological alteration of the cells was observed under a phase-contrast microscope. During the culture, the culture solution was exchanged with a fresh one every 4 or 5 days. […] However, when compared with the case of adding the NAD analogue of the present invention to the cells, the length of such a neurite was apparently short. Moreover, the same experiment as described above was carried out using commercially available β-NAD.
The number of human neuroblastoma-derived cells (NB-cells), which were to be used as model cells for studying neurite outgrowth effect, was adjusted to 10^6 cells/mL. Thus prepared NB-1 cells were cultured in an Eagle's MEM medium, to which calf serum had been added to a final concentration of 10% and to which 10 μg/mL of the NAD analogue of the present invention had also been added. After 7 days passed, the morphological alteration of the cells was observed under a phase-contrast microscope at a magnification of 200 times.

[4] = test system: HL-60 cells; assay: Growth suppression of human myeloid leukemia cells (cell count); details: tested 0, 2.0, 4.0, 8.0 μg/mL, 5 days, t-test p<0.05 (FIG. 17)
Experimental: (§1) The number of human myeloid leukemia cells (HL-60 cells) was adjusted to 1.0×10^4 cells/mL. The thus prepared HL-60 cells were cultured in an Eagle's MEM medium, to which calf serum had been added to a final concentration of 10% and to which the NAD analogue of the present invention had also been added in various concentrations of 0, 2.0, 4.0, and 8.0 μg/mL. After 5 days passed, the number of cells was counted.
(§2) Analysis was carried out by a t-test. It was determined that p<0.05 indicated a significant difference.

[5] = test system: HL-60 cells; assay: Apoptosis induction in human myeloid leukemia cells (nuclear staining, DNA electrophoresis)
Experimental: The number of human myeloid leukemia cells (HL-60 cells) was adjusted to 1.0×10^4 cells/mL. The thus prepared HL-60 cells were cultured in an RPMI medium, to which calf serum had been added to a final concentration of 10% and to which the NAD analogue of the present invention had also been added in a concentration of 10 μg/mL or 20 μg/mL. Four days later, the cells were subjected to nuclear staining, and they were then observed under a fluorescence microscope. Furthermore, DNA was extracted from the cells according to an ordinary method and was then electrophoresed.

[6] = test system: UF-1 cells; assay: Growth suppression of retinoic acid-resistant leukemia cells (cell count); details: tested 0, 2.0, 4.0, 8.0 μg/mL, 28 days, t-test p<0.05 (FIG. 19)
Experimental: as §1, with “retinoic acid-resistant” for “human myeloid”, “(UF-1” for “(HL-60”, “UF-1” for “HL-60”, “RPMI” for “Eagle's MEM”, “28” for “5”
Analysis was carried out by a t-test. It was determined that p<0.05 indicated a significant difference. […] A differentiation induction therapy using retinoic acid has conventionally been carried out for the treatment of myeloid leukemia cells. It has been known that the leukemia cells eventually become resistant to retinoic acid, and thus the effect of retinoic acid becomes deactivated. However, from the results of the test using the NAD analogue of the present invention, it was confirmed that the NAD analogue of the present invention has an action to suppress the growth of even leukemia cells, which have acquired resistance to retinoic acid. In general, cells are not cultured for such a long period of time. The above-mentioned results were epoch-making in the sense that they were found after the culture for 28 days.

[7] = test system: HT1080 cells; assay: Growth suppression of human fibrosarcoma cells (cell count); details: tested 0, 2.0, 4.0, 8.0 μg/mL, 7 days, t-test p<0.05 (FIG. 20)
Experimental: as §1, with “fibrosarcoma” for “myeloid leukemia”, “(HT1080” for “(HL-60”, “Thus” for “The thus”, “HT1080” for “HL-60”, “7” for “5”
as §2

[8] = test system: HT29 cells; assay: Growth suppression of human colon-adenocarcinoma cells (cell count); details: tested 0, 2.0, 4.0, 8.0 μg/mL, 7 days, t-test p<0.05 (FIG. 21)
Experimental: as §1, with “colon-adenocarcinoma” for “myeloid leukemia”, “(HT29” for “(HL-60”, “Thus” for “The thus”, “HT29” for “HL-60”, “7” for “5”
as §2

Row | Molecule | morphological alteration of the cell (neurite outgrowth) [1] | length of the neurite (control defined as 100%) ([2]; 10 μg/mL, average of 38 test cells vs 45 control cells (FIG. 7)) | length of neurites elongated from the cell bodies (concentration dependence) ([2]; 3 days) | concentration whose addition allows neurites to elongate ([2]; fetal rat brain dopaminergic cells (FIG. 8)) | formation of varicosities on the projection ([2]; fetal rat midbrain nerve cells, 0 to 10 μg/mL, 3 days) | morphological alteration of the cells (neurite outgrowth) [3] | morphological alteration of the cells (neurite-like structures) ([3]; NB-1 cells 10^6 cells/mL, after 7 days (FIG. 16)) | concentration at which growth of the HL-60 cells was obviously suppressed [4] | shape of the nucleus (nuclear staining, fluorescence microscope) ([5]; HL-60 cells cultured for 4 days with compound (FIG. 18B)) | DNA fragmentation (electrophoresis of extracted DNA) ([5]; HL-60 cells, 10 μg/mL or 20 μg/mL, 4 days (FIG. 18C lanes 3 and 4)) | concentration at which growth of the UF-1 cells was significantly suppressed [6] | concentration at which growth of the cells was significantly suppressed [7] | concentration at which growth of the cells was significantly suppressed [8] | outgrowth of neurites (same experiment as FIG. 8) ([2]; fetal rat brain dopaminergic cells)
1 | 3-(aminocarbonyl)-1-[5-O-[[1-(6-amino-9H-purin-9-yl)-1-deoxy-β-D-ribofuranose-5-O-yl]phosphonyloxy(oxylato)phosphinyl]-β-L-ribofuranosyl]pyridinium [NAD analogue of the present invention] | neurites (nerve axon-like projections) appeared from Neuro-2a cells and that these neurites elongated from the cells | approximately 150% | the higher the concentration of the NAD analogue of the present invention in the fetal rat midbrain nerve cells, the longer a neurite | 0.1 µg/mL | forms a large number of knobby, what is called “varicosities” on the projection | neurites (nerve axon-like projections) appeared from NB-1 cells and that these neurites elongated from the cells | neurite-like structures elongated more significantly | ≥ 2.0 µg/mL | the breakage of the nucleus in the HL-60 cell was clearly observed | fragmentation of the DNA due to apoptosis was observed in the form of a “ladder.” | ≥ 8.0 µg/mL | ≥ 4.0 µg/mL | ≥ 2 µg/mL | 
2 | NC(=O)c1ccc[n+]([C@@H]2O[C@H](COP(=O)([O-])OP(=O)(O)OC[C@H]3O[C@@H](n4cnc5c(N)ncnc54)[C@H](O)[C@@H]3O)[C@@H](O)[C@H]2O)c1 [β-NAD, reference compound] | no change in neurites was found |  | the outgrowth of neurites was not observed |  |  | no change in neurites was found |  |  |  |  |  |  |  | the outgrowth of neurites was not observed

Reference: US8481711B2, “Neurite outgrowth agent” (Hidenori Kamanishi, priority 2010, dated 2013)
